# Where “and” joins values, the source holds several entries; their conditions need not be identical. Equal entries are not always repeated.
# Experiments:
# [1] = system: 2-phenyl-1,4-benzoquinone-induced writhing; assay: 2-phenyl-1,4-benzoquinone-induced writhing test in mice (analgesic activity, phenylquinone writhing); type: in vivo
# Text: The compounds of formula I of the present invention are useful as analgesic agents due to their ability to alleviate pain in mammals. […] Exptl. Biol. Med., 95, 729 (1957)].
# [2] = system: spontaneous hypertensive rat; assay: Antihypertensive activity in the spontaneous hypertensive rat by the indirect tail cuff method; type: in vivo; settings: mean arterial blood pressure, third day
# Description: In this procedure a group of five animals are treated orally for three days with the test compound in relation to a control group of the same number. The drop in blood pressure is measured on the third day following administration.
smiles,measurement,setting,value
"CCC(=O)O[C@](Cc1ccccc1)(c1ccccc1)[C@H](C)CN(C)C [propoxyphene, reference compound]","Analgesic PQW, % Inhibition of Writhing","[1]; 3.9 mg/kg s.c., reference compound",50%
"CN(C)CC1Oc2ccccc2C(c2ccccc2)n2cccc21.Cl (single isomer, unassigned) [11-dimethylaminomethyl-5-phenyl-5H,11H--pyrrolo[2,1-c][1,4]b] [11-Dimethylaminomethyl-5-phenyl-5H,11H-pyrrolo[2,1-c][1,4]benzoxazepine hydrochloride]","Analgesic PQW, % Inhibition of Writhing","[1]; 20 mg/kg, s.c., hydrochloride",24% and 35%
"O=C(O)C(=O)O.c1ccc(CN2CCC(C3Oc4ccccc4C(c4ccccc4)n4cccc43)CC2)cc1 (centres unmarked) [11-(1-Benzyl-4-piperidinyl)-5-phenyl-5H,11H-pyrrolo[2,1-c][1,4]benzoxazepine oxalate]",Decrease in Blood Pressure,"[2]; 3 mg/kg, p.o.",44 mmHg
same,"Analgesic PQW, % Inhibition of Writhing","[1]; 20 mg/kg, s.c.",34%
"C[C@H](CS)C(=O)N1CCC[C@H]1C(=O)O [captopril, reference compound]",Decrease in Blood Pressure,"[2]; 10 mg/kg p.o., reference compound",33 mmHg

# Reference: US4794110A, “5-Aryl-11-substituted-5H,11H-pyrrolo[2,1-c][1,4]benzoxazepined as analgesic and hypotensive agents” (Hoechst-Roussel Pharmaceuticals, Inc., priority 1987, dated 1988)
